# “Also recorded” adds a separate entry of the source.
# Key:
# [1] = tested on: HCE (human ciliary epithelial) cell line, NPE cells; test: Cell volume (shrinkage) of NPE cells in isosmotic solution, Coulter Counter, 5 μM gramicidin; type: cell-based
# Method: A 0.5-ml aliquot of the HCE cell suspension in DMEM was added to 20 ml of each test solution, which contained (in mM): 110.0 NaCl, 15.0HEPES [4-(2-hydroxyethyl)-1-piperazineethanesulfonic acid], 2.5 CaCl2, 1.2 MgCl2, 4.7 KCl, 1.2 KH2PO4, 30.0 NaHCO3, and 10.0 glucose, at a pH of 7.4 and osmolality of 298-305 mOsm. Parallel aliquots of cells were studied on the same day. One aliquot usually served as a control, and the others were exposed to different experimental conditions at the time of suspension. The same amount of solvent vehicle (dimethylformamide, DMSO or ethanol) was always added to the control and experimental aliquots. The sequence of studying the suspensions was varied to preclude systematic time-dependent artifacts (Civan et al., Exp. Eye Res. 54:181-191, 1992).
# Cell volumes of isosmotic suspensions were measured with a Coulter Counter (model ZBI-Channelyzer II), using a 100-μm aperture (Civan et al., supra., 1994). As previously described (Wax et al., supra., 1993), the cell volume (vC) of the suspension was taken as the peak of the distribution function. Cell shrinkage was fit as a function of time (t) to a monoexponential function:
# vC=v∞+(v0−v∞)−[e^−(t−t^0^)/τ] {1}
# where v∞ is the steady-state cell volume, v0 is the cell volume at the first point (t0) of the time course to be fit, and τ is the time constant of the shrinkage. For purposes of data reduction, the data were normalized to the first time point, taken to be 100% isotonic volume. Fits were obtained by nonlinear least-squares regression analysis, permitting both v∞and τ to be variables.
# In order to differentiate among these receptors, the experiments were repeated in the present study using a series of agonists and antagonists selective for these receptors. As we wished to identify the effects of these receptors specifically on Cl^− channels, 5 μM gramicidin D was included in all solutions to eliminate any potential contribution from K^+ channels. This ionophore readily partitions into plasma membranes to form a cation-selective pore, and is widely used for studying volume regulation (Hoffmann et al., in Interaction of Cell Volume and Cell Function, Lang et al., eds., Springer, Heidelberg, Germany, pp. 188-248, (ACEP Series 14), 1993)). Under these conditions, release of cell Cl^− becomes the rate-limiting factor in both hypo-(Civan et al., Exp. Eye Res. 54:181-191, 1992) and isoosmotic cell shrinkage (Carre et al., supra., 1997).
# [2] = tested on: bovine pigmented ciliary epithelial (PE) cells; test: Cell volume (shrinkage) of PE cells in isoosmotic suspension, Coulter Counter; type: cell-based; conditions: for effect of estradiol on shrinkage produced by ATP and tamoxifen: 100 nM estradiol; for effect of estradiol on cell volume in the absence of tamoxifen: 100 nM, FIG. 16B; for effect of PKC modulator on cell volume in the presence of ATP: 0.3 μM staurosporine, 250 μM DiC8; for effect of agent on shrinkage in the presence of ATP / shrinkage by agent in the presence or absence of ATP: 10 μM agent; for shrinkage by agent in the presence or absence of ATP: with or without 100 μM ATP
# human A3 receptor = target: T1, human A3 receptor (Homo sapiens, UniProt P0DMS8); test: Radioligand binding, [125I]AB-MECA, HEK-293 cell membranes; set-up: host or cells: HEK-293; conditions: read-out: Ki(hA3)
# T1 sequence (P0DMS8 1-318): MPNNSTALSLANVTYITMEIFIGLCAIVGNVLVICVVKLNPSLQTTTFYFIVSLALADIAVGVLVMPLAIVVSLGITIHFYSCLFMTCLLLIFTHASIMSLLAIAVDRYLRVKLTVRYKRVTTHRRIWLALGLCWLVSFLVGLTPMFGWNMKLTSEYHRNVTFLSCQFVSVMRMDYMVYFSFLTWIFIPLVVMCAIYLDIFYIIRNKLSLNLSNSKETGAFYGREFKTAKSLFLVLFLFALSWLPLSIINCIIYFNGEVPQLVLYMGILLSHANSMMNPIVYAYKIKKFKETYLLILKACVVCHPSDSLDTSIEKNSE
# Method: Natl. Acad. Sci. […] Natl. Acad. Sci. U.S.A. 89:7432-7436, 1992) was performed as described at 4° C. (Olah et al., Mol. Pharmacol. 45:978-982, 1994). The assay medium consisted of a buffer containing 10 mM Mg^2+, 50 mM Tris, 3 units/mL adenosine deaminase, and 1 mM EDTA, at pH 8.0 (4° C.). […] Incubations were terminated by rapid filtration over Whatman GF/B filters, using a Brandell cell harvester (Brandell, Gaithersburg, MD). The tubes were rinsed three times with 3 mL buffer each. At least five different concentrations of competitor, spanning 3 orders of magnitude adjusted appropriately for the IC50 of each compound, were used. IC50 values, calculated with the nonlinear regression method implemented in the InPlot program (Graph-PAD, San Diego, Calif.), were converted to apparent Ki values using the Cheng-Prusoff equation (Cheng et al., Biochem.
# [3] = FIG. 2D, 100 nM Cl-IB-MECA, IB-MECA in parallel
# [4] = 100 μM ATP + 10 μM agent, FIG. 13A
# [5] = 10 μM trifluoperazine alone, FIG. 14B
# [6] = 100 μM ATP + 10 μM TMX + 10 μM trifluoperazine, FIG. 14A
# [7] = 100 μM ATP + 10 μM agent, FIG. 14A
# [8] = 100 μM ATP + 10 μM trifluoperazine, FIG. 14B
structure (smiles),measurement,setting,value
CNC(=O)[C@H]1O[C@@H](n2cnc3c(NCc4cccc(I)c4)nc(Cl)nc32)[C@H](O)[C@@H]1O [Cl-IB-MECA],steady-state cell volume (V∞),[1]; [3],97.9±0.2%
same,time constant of the shrinkage (τ),[1]; [3],2.5 ± 1.3 min
C[C@]12CC[C@@H]3c4ccc(O)cc4CC[C@H]3[C@@H]1CC[C@@H]2O [17β-estradiol],effect of estradiol together with ATP on cell volume,"[2]; 100 nM 17β-estradiol, 100 μM ATP",small and slow shrinkage
same,effect of estradiol on shrinkage produced by ATP and tamoxifen,"[2]; 100 μM ATP, 10 μM tamoxifen",reduced; also recorded: significantly inhibited
same,effect of estradiol on cell volume in the absence of tamoxifen,[2],very small effects
"CCCOC(=O)c1c(CCC)c(C(=O)SCC)c(CC)[n+](C)c1-c1ccccc1 [Compound 16, 1-Methyl-2-ethyl-4-propyl-3-(ethylsulfanylcarbonyl)-5-propyloxycarbonyl-6-phenylpyridinium Iodide]",Ki,human A3 receptor,2020 nM
"CCCCc1c(C(=O)SCC)c(CC)c(C(=O)OCC)c(-c2ccccc2)[n+]1C [Compound 20, 1-Methyl-2-butyl-4-ethyl-3-(ethylsulfanylcarbonyl)-5-ethyloxycarbonyl-6-phenylpyridinium Iodide]",Ki,human A3 receptor,436 nM
"CCOC(=O)c1c(CC)c(C(=O)SCC)c(C)[n+](C)c1-c1ccccc1 [Compound 10, 1-Methyl-2-methyl-4-ethyl-3-(ethylsulfanylcarbonyl)-5-ethyloxycarbonyl-6-phenylpyridinium Iodide]",Ki,human A3 receptor,379 nM
"CCCOC(=O)c1c(CC)c(C(=O)SCC)c(CC)[n+](C)c1-c1ccccc1 [Compound 15, 1-Methyl-2-ethyl-4-ethyl-3-(ethylsulfanylcarbonyl)-5-propyloxycarbonyl-6-phenylpyridinium Iodide]",Ki,human A3 receptor,483 nM
CCCCCCCC(=O)OCC(CO)OC(=O)CCCCCCC (stereo not shown) [DiC8],effect of PKC modulator on cell volume in the presence of ATP,[2]; 100 μM ATP,no significant effect
"CCC[n+]1c(CC)c(C(=O)SCC)c(CC)c(C(=O)OCC)c1-c1ccccc1 [Compound 13, 1-Propyl-2,4-diethyl-3-(ethylsulfanylcarbonyl)-5-ethyloxycarbonyl-6-phenylpyridinium Iodide]",Ki,human A3 receptor,1350 nM
NCCc1c[nH]cn1 [histamine],effect of agent on shrinkage in the presence of ATP,"[2]; 100 μM ATP, FIG. 13A",did not enhance the volumetric response
same,steady-state cell volume (v∞),[2]; [4],97.4±0.5%
same,time constant of the shrinkage (τ),[2]; [4],21.0 ± 8.0 min
"OC[C@H]1O[C@@H](n2cnc3c(NC4CCCC4)ncnc32)[C@H](O)[C@@H]1O [CPA, N^6-cyclopentyladenosine]",effect of adenosine-receptor agonist on isoosmotic volume,[1]; 30 nM agonist,no significant shrinkage
same,effect of adenosine-receptor agonist on isoosmotic volume,[1]; 100 nM agonist,small slow effect of uncertain significance; also recorded: little effect
same,effect of adenosine-receptor agonist on isoosmotic volume,[1]; 1 μM agonist,no significant shrinkage
same,effect of adenosine-receptor agonist on isoosmotic volume,[1]; 3 μM agonist,no significant shrinkage; also recorded: none at all
"CCCOC(=O)c1c(CCC)c(C(=O)SCC)c(CCOCc2ccccc2)[n+](C)c1-c1ccccc1 [Compound 22, 1-Methyl-2-(2-benzyloxylethyl)-4-propyl-3-(ethylsulfanylcarbonyl)-5-propyloxycarbonyl-6-phenylpyridinium Iodide]",Ki,human A3 receptor,348 nM
"CCOC(=O)c1c(CC)c(C(=O)SCC)c(C2CCC2)[n+](C)c1-c1ccccc1 [Compound 21, 1-Methyl-2-cyclobutyl-4-ethyl-3-(ethylsulfanylcarbonyl)-5-ethyloxycarbonyl-6-phenyl pyridinium Iodide]",Ki,human A3 receptor,1410 nM
"CCNC(=O)[C@H]1O[C@@H](n2cnc3c(N)nc(NCCc4ccc(CCC(=O)O)cc4)nc32)[C@H](O)[C@@H]1O [CGS-21680, 2-[4-[(2-carboxyethyl)phenyl]ethylamino]-5′-N-ethylcarbamoyladenosine]",effect of adenosine-receptor agonist on isoosmotic volume,[1]; 100 nM agonist,no detectable effect
same,effect of adenosine-receptor agonist on isoosmotic volume,[1]; 3 μM agonist,triggered isoosmotic shrinkage
CCSC(=O)c1c(CC)c(C(=O)OCCF)c(-c2ccccc2)[n+](C)c1CC [Compound 14],Ki,human A3 receptor,364 nM
CCOC(=O)c1c(CCN2C(=O)c3ccccc3C2=O)c(C(=O)SCC)c(CC)[n+](C)c1-c1ccccc1 [Compound 19],Ki,human A3 receptor,1250 nM
"CCCOC(=O)c1c(CCC)c(C(=O)SCCCF)c(CC)[n+](C)c1-c1ccccc1 [Compound 17, 1-Methyl-2-ethyl-4-propyl-3-(3-fluoropropylsulfanylcarbonyl)-5-propyloxycarbonyl-6-phenylpyridinium Iodide]",Ki,human A3 receptor,465 nM
"CCOC(=O)c1c(CC)c(C(=O)SCC)c(CC)[n+](CC)c1-c1ccccc1 [Compound 12, 1-Ethyl-2,4-diethyl-3-(ethylsufanylcarbonyl)-5-ethyloxycarbonyl-6-phenylpyridinium Iodide]",Ki,human A3 receptor,577 nM
CN[C@@H]1C[C@H]2O[C@@](C)([C@@H]1OC)n1c3ccccc3c3c4c(c5c6ccccc6n2c5c31)C(=O)NC4 [staurosporine],effect of PKC modulator on cell volume in the presence of ATP,[2]; 100 μM ATP,"small, insignificant shrinkage"
C[C@]12CC[C@@H]3c4ccc(O)cc4CC[C@H]3[C@@H]1CC[C@H]2O [17α-estradiol],effect of estradiol on shrinkage produced by ATP and tamoxifen,"[2]; 100 μM ATP, 10 μM tamoxifen",no significant effect
same,effect of estradiol on cell volume in the absence of tamoxifen,[2],very small effects
"O=S(=O)(O)c1cc(N=C=S)ccc1C=Cc1ccc(N=C=S)cc1S(=O)(=O)O [DIDS, 4,4′-diisothiocyano-2,2′-disulfonic acid]","effect of Cl− channel blocker on ATP, tamoxifen-activated shrinkage","[2]; DIDS 500 μM, NPPB 100 μM",inhibited the volume reduction; also recorded: reduced
C[N+](C)(C)CCOC(N)=O [carbachol],effect of agent on shrinkage in the presence of ATP,"[2]; 100 μM ATP, FIG. 13A",did trigger a prompt shrinkage; also recorded: enhanced shrinkage
same,shrinkage by agent in the presence or absence of ATP,[2],nearly the same degree of shrinkage in the presence or absence of 100 μM ATP; also recorded: reduced cell volume on their own
same,steady-state cell volume (v∞),[2]; [4],94.2±0.4%
same,time constant of the shrinkage (τ),[2]; [4],5.6 ± 1.2 min
"CCCOC(=O)c1c(CCSC(C)=O)c(C(=O)SCC)c(CC)[n+](C)c1-c1ccccc1 [Compound 18, 1-Methyl-2-ethyl-4-(2-acetylthioethyl)-3-(ethylsulfanylcarbonyl)-5-propyloxycarbonyl-6-phenylpyridinium Iodide]",Ki,human A3 receptor,538 nM
CN1CCN(CCCN2c3ccccc3Sc3ccc(C(F)(F)F)cc32)CC1 [trifluoperazine],shrinkage by agent in the presence or absence of ATP,[2],"the same, whether or not ATP was present; also recorded: reduced cell volume on their own"
same,steady-state cell volume (v∞),[2]; [5],96.8±0.2%
same,time constant of the shrinkage (τ),[2]; [5],0.9 ± 0.6 min
same,effect of trifluoperazine on shrinkage produced by ATP alone,"[2]; 10 μM trifluoperazine, 100 μM ATP",enhanced the shrinkage produced by ATP alone
same,effect of trifluoperazine on the response to ATP+TMX,"[2]; 10 μM trifluoperazine, 100 μM ATP, 10 μM tamoxifen",reduced the response
same,steady-state cell volume (v∞),[2]; [6],95.7±0.4%
same,time constant of the shrinkage (τ),[2]; [6],3.9 ± 1.2 min
same,steady-state cell volume (v∞),[2]; [7],96.2±0.3%
same,time constant of the shrinkage (τ),[2]; [7],6.8 ± 1.4 min
same,steady-state cell volume (v∞),[2]; [8],96.7±0.3%
same,time constant of the shrinkage (τ),[2]; [8],0.5 ± 1.5 min

# Source: patent publication US6528516B1, “Methods for reducing intraocular pressure using A3 adenosine receptor antagonists” (Trustees of the University of Pennsylvania, The Center for …, priority 1998, dated 2003)
